This is an account of results in PubChem BioAssay (NCI).

Values joined by “and” are separate entries in the source; they are usually repeats but may differ in a detail not shown here. Identical values can stand only once.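 Briefly, cells in 96-well plates were exposed to five compound concentrations for 48 h, and endpoints were estimated by linear interpolation. At the GI50, growth is halved. TGI: concentration producing complete growth inhibition.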

Test systems include SK-MEL-28 melanoma; SK-MEL-5 melanoma; HT29 colon; MALME-3M melanoma; RXF 393 renal; NCI/ADR-RES ovarian; M14 melanoma; OVCAR-8 ovarian; OVCAR-5 ovarian; HL-60(TB) leukemia.
Holding throughout (assay): DTP human tumour cell line panel, 48 h

What is called GI50 is the concentration that inhibits growth by half. For orientation: TGI means the concentration at which net growth stops.

For `COc1cc(-c2nn(-c3cccc(NC(=O)Nc4ccc(Cl)c(C(F)(F)F)c4)c3)cc2-c2ccncc2)ccc1Cl`, the GI50 in the experiment on SK-MEL-28 melanoma was 1.2 µM; with SK-MEL-5 melanoma, 0.818 µM; with HT29 colon, 1.19 µM; with MALME-3M melanoma, 0.838 µM; with RXF 393 renal, 1.18 µM; in the experiment on NCI/ADR-RES ovarian, 1.04 µM. Moreover, the GI50 with M14 melanoma was 1.08 µM; in the experiment on OVCAR-8 ovarian, 1.05 µM; in the experiment on OVCAR-5 ovarian it was 3.09 µM; with HL-60(TB) leukemia, 1.17 µM. The TGI with SK-MEL-28 melanoma was 5.01 µM; with SK-MEL-5 melanoma it was 2.89 µM; in the experiment with HT29 colon, 4.45 µM; in the experiment with MALME-3M melanoma, 2.35 µM; with RXF 393 renal, 6.29 µM; in the experiment with NCI/ADR-RES ovarian it was 7.99 µM. The TGI is 3.71 µM in the experiment with M14 melanoma, 5.87 µM in the experiment on OVCAR-8 ovarian, 11 µM in the experiment on OVCAR-5 ovarian and above 32.5 µM in the experiment with HL-60(TB) leukemia.

Consider `Cc1c(CN2CCN(C(=O)[C@H](C)O)CC2)sc2c(N3CCOCC3)nc(-c3cnc(N)nc3)nc12`, for which the GI50 in the experiment on SK-MEL-28 melanoma is 0.247 µM and 0.138 µM; in the experiment on SK-MEL-5 melanoma it was 0.397 µM and 0.174 µM; in the experiment with HT29 colon it was 0.207 µM and 0.174 µM; with MALME-3M melanoma it was 0.0506 µM; with RXF 393 renal, 0.0603 µM and 0.119 µM; with NCI/ADR-RES ovarian, 0.663 µM and 0.408 µM. The GI50 in the experiment with M14 melanoma is 0.326 µM and 0.0936 µM; in the experiment on OVCAR-8 ovarian, 0.631 µM and 0.26 µM; in the experiment on OVCAR-5 ovarian, 0.192 µM and 0.128 µM; with HL-60(TB) leukemia, 0.146 µM and 0.192 µM. For the same compound, the TGI in the experiment on SK-MEL-28 melanoma is 5.43 µM and 0.708 µM; in the experiment with SK-MEL-5 melanoma, 2.15 µM and 0.741 µM; in the experiment on HT29 colon it was above 56.8 µM; in the experiment on MALME-3M melanoma, 0.847 µM and 0.414 µM; in the experiment on RXF 393 renal, 0.443 µM and 0.543 µM; in the experiment with NCI/ADR-RES ovarian it was above 30.2 µM. The TGI with M14 melanoma was > 9.28 µM and 1.44 µM; in the experiment on OVCAR-8 ovarian, > 10 µM and 2.34 µM; in the experiment with OVCAR-5 ovarian it was > 10 µM and 4.3 µM; in the experiment with HL-60(TB) leukemia it was > 10 µM and 6.81 µM.

Consider `Fc1cccc(COc2ccc(Nc3ncnc4onc(-c5ccccc5)c34)cc2)c1`, for which the GI50 in the experiment with SK-MEL-28 melanoma was 16.4 µM; in the experiment on SK-MEL-5 melanoma, 0.299 µM; in the experiment with HT29 colon, 0.0495 µM; with MALME-3M melanoma, 0.206 µM; with RXF 393 renal it was 0.219 µM; in the experiment on NCI/ADR-RES ovarian, 3.02 µM. Moreover, the GI50 in the experiment on M14 melanoma is 0.179 µM; in the experiment with OVCAR-8 ovarian it was 0.262 µM; with OVCAR-5 ovarian, 0.34 µM; with HL-60(TB) leukemia it was 0.0955 µM. The TGI with SK-MEL-28 melanoma was above 100 µM; with SK-MEL-5 melanoma it was 30.4 µM; in the experiment with HT29 colon, above 34 µM; in the experiment on MALME-3M melanoma it was above 100 µM; in the experiment on RXF 393 renal, 1.35 µM; in the experiment on NCI/ADR-RES ovarian, 15.7 µM. For the same compound, the TGI was above 100 µM in the experiment on M14 melanoma, above 100 µM with OVCAR-8 ovarian, 29.3 µM with OVCAR-5 ovarian and above 100 µM in the experiment on HL-60(TB) leukemia.

As for `O=C(O)c1cccc(S(=O)(=O)NCCO)c1`, the TGI in the experiment with SK-MEL-28 melanoma, in the experiment on SK-MEL-5 melanoma, with HT29 colon, in the experiment with MALME-3M melanoma, in the experiment on RXF 393 renal and in the experiment on NCI/ADR-RES ovarian was above 100 µM in each case. In addition, the TGI with M14 melanoma, in the experiment on OVCAR-8 ovarian, in the experiment with OVCAR-5 ovarian and with HL-60(TB) leukemia was above 100 µM each time.

For `CC(=O)O.CN1[CH-]N(Cc2ccc(C#N)cc2)c2ccccc21.[Ag+]`, the GI50 was 16.7 µM in the experiment with SK-MEL-28 melanoma; 12.7 µM with SK-MEL-5 melanoma; 21.6 µM with HT29 colon; 19.8 µM in the experiment with MALME-3M melanoma; 14 µM with RXF 393 renal; above 100 µM with NCI/ADR-RES ovarian. Further, the GI50 is 16.9 µM in the experiment on M14 melanoma, 23.9 µM in the experiment on OVCAR-8 ovarian, 58.4 µM in the experiment with OVCAR-5 ovarian and 20.3 µM in the experiment on HL-60(TB) leukemia. Moreover, the TGI in the experiment on SK-MEL-28 melanoma is 32.1 µM; in the experiment on SK-MEL-5 melanoma, 27.6 µM; with HT29 colon, 44.4 µM; in the experiment with MALME-3M melanoma, 41.5 µM; in the experiment with RXF 393 renal, 28.3 µM; in the experiment with NCI/ADR-RES ovarian, above 100 µM. Also, the TGI in the experiment with M14 melanoma is 32.7 µM; in the experiment with OVCAR-8 ovarian, 75.9 µM; in the experiment on OVCAR-5 ovarian, above 100 µM; in the experiment on HL-60(TB) leukemia, 45.9 µM.

As for `Cc1ccc(OCC2CO2)c(Br)c1` (stereo not given), the TGI with SK-MEL-28 melanoma was 85.1 µM; with SK-MEL-5 melanoma, 60.5 µM; with HT29 colon, 29.1 µM; with MALME-3M melanoma it was above 100 µM; in the experiment on RXF 393 renal, 26.5 µM; in the experiment with NCI/ADR-RES ovarian, 33 µM. For the same compound, the TGI with M14 melanoma is 95.9 µM; in the experiment with OVCAR-8 ovarian, 20.4 µM; with OVCAR-5 ovarian it was 34.6 µM; in the experiment with HL-60(TB) leukemia it was above 100 µM.

Take `COc1ccc(Nc2nc(NCCNc3ccnc4cc(Cl)ccc34)nc(N3CCOCC3)n2)cc1`: the GI50 with SK-MEL-28 melanoma was 1.81 µM; with SK-MEL-5 melanoma it was 1.59 µM; in the experiment on HT29 colon it was 1.07 µM; in the experiment with MALME-3M melanoma, 1.94 µM; in the experiment on RXF 393 renal it was 1.89 µM; in the experiment on NCI/ADR-RES ovarian, 6.38 µM. For the same compound, the GI50 in the experiment on M14 melanoma is 1.86 µM; in the experiment on OVCAR-8 ovarian it was 6.46 µM; with OVCAR-5 ovarian, 15.7 µM; in the experiment on HL-60(TB) leukemia, 1.13 µM. For the same compound, the TGI was 3.28 µM with SK-MEL-28 melanoma; 3.04 µM in the experiment on SK-MEL-5 melanoma; 3.75 µM in the experiment with HT29 colon; 3.47 µM with MALME-3M melanoma; 8.92 µM with RXF 393 renal; 24.9 µM in the experiment with NCI/ADR-RES ovarian. Further, the TGI amounted to 3.47 µM with M14 melanoma, 27.4 µM in the experiment with OVCAR-8 ovarian, 31.4 µM with OVCAR-5 ovarian and 12.7 µM in the experiment on HL-60(TB) leukemia.
